Common to all, as to type: cell-based
Assay [1] relates to Staphylococcus aureus ATCC 6538 biofilms. Put plainly: Anti-biofilm activity on preformed 24-hour/48-hour Staphylococcus aureus ATCC 6538 biofilms, 4-hour treatment, crystal violet, 590 nm. The conditions noted are these: 24-hour biofilm. The method, then:
The plates were then incubated at 37° C. for 4 hrs. After treatment, the cells were fixed with 99% methanol and stained with 1% crystal violet. The stained biofilm was dissolved with 33% acetic acid and the absorbance was read at 590 nm. The results were analyzed using Prism GraphPad software.

In assay [2] the test system is Pseudomonas aeruginosa PA01 398 biofilms. Put plainly: Anti-biofilm activity on 48-hour Pseudomonas aeruginosa PA01 398 biofilms, 4-hour combined or staged treatment, crystal violet. The conditions noted are these: NAC 25 and 50 mg/ml single agent, FIG. 9. Here is the method: Each plate was then incubated at 37° C. for 24 hrs and, afterwards, the plates were treated with various concentrations of acetylcysteine, bromelain, gentamicin, ampicillin and combinations thereof. The plate was then incubated at 37° C. for 4 hrs.
(§1) After treatment, the cells were fixed with 99% methanol and stained with 1% crystal violet. The stained biofilm was dissolved with 33% acetic acid and the absorbance was read at 590 nm. The results were analyzed using Prism GraphPad software.
Each plate was then incubated at 37° C. for 24 hrs and, afterwards, the plates were treated with various concentrations of acetylcysteine, bromelain and either gentamicin or ampicillin. The plate was then incubated at 37° C. for 4 hrs. After treatment, the cells were fixed with 99% methanol and stained with 1% crystal violet. The stained biofilm was dissolved with 33% acetic acid and the absorbance was read at 590 nm. The results were analyzed using Prism GraphPad software.
In the first series of experiments, the results of which are shown in FIG. 12, 48-hour Pseudomonas aeruginosa PA01 398 biofilms were treated for 4-hours with the compositions shown in the table including ampicillin (50-200 μg/mL), bromelain (25 μg/mL) and acetylcysteine (10 mg/mL) in 5% glucose. […]

The test system of assay [3] is Pseudomonas aeruginosa ATCC 31461 biofilms. Kind of assay: Anti-biofilm activity on 48-hour Pseudomonas aeruginosa ATCC 31461 biofilms, 4-hour treatment, crystal violet. To be noted: FIG. 6. Here is the method: Each plate was then incubated at 37° C. for 24 hrs and, afterwards, the plates were treated with various concentrations of acetylcysteine, bromelain and/or ampicillin. The plate was then incubated at 37° C. for 4 hrs.
as §1

Another assay deals with biofilm. Put plainly: Inventor's summary statements on biofilm experiments. To be noted: at therapeutically appropriate dosages.

Entries after “also recorded” stand apart in the source; their conditions may differ.

Take `CC(=O)N[C@@H](CS)C(=O)O` [acetylcysteine]: in assay [1] (acetylcysteine 20 mg/mL single treatment, 4-hour, FIG. 3), the “effect on biofilm eradication” value was “no effect on biofilm eradication”. Moreover, the “effect on biofilm as single agent” value in assay [2] is given as “antagonistic”. Also, the effectiveness on biofilm entry in assay [3] (acetylcysteine 25 mg/mL single agent) was “not effective”; in assay [3] (acetylcysteine 50 mg/ml single agent), “moderately effective”. The “effect of acetylcysteine alone on biofilm” value in the assay on biofilm is given as “no appreciable effect; also recorded: relatively ineffective”.
In the case of gentamicin, the biofilm eradication is 2% in assay [1] (gentamicin 12 μg/ml single agent, 4-hour, FIG. 5) and “approximately 60%” in assay [1] (gentamicin 35 μg/ml single agent, most effective gentamicin treatment). Besides, the “effectiveness of single agent (eradication)” value in assay [1] (gentamicin 16 μg/ml single agent, compared to the concentration in combination, FIG. 5) turned out to be 5%.

These data come from US20230226160A1, “COMPOSITIONS AND METHODS FOR TREATING BACTERIAL INFECTIONS” (MUCPHARM PTY LTD, priority 2020, published 2023).
